The test system of data set [1] is isolated gastric fundic gland. Briefly: CAP: Acid Secretion Inhibition Test In Vitro ([14C]-aminopyrine uptake). The class given is cell-based, rabbit (male Japanese White). The following applies: Oryctolagus cuniculus, 40 min, read-out: CAP: acid secretion inhibitory rate. The method, then: With respect to the gastric juice volume (VOL) and the total acid output (TAO), the effects obtained when 100 mg/kg of the sample compound had been administered were expressed as their respective inhibitory rates (%) as follows: [formula] CAP: Acid Secretion Inhibition Test In Vitro i) Meaning
The acid secretion inhibitory activity in a cell level is studied. It can also be used for studying the mechanism of the effect.
ii-a) Preparation of isolated gastric fundus gland suspension
First, an isolated gastric fundic gland sample was prepared. […] Immediately thereafter, the stomach was removed and, after its pyloric and cardiac antrum were severed, incised along its greater curvature into two sheets. The gastric contents adhering to the mucosal surface was washed out with ice-cooled PBS (-) and then carefully washed therein. The gastric wall was spread on a cork board with its mucosal surface facing up and the feed and mucus thereon were completely removed with sterile gauze. The mucosa was separated therefrom by a spatula and then collected in ice-cooled PBS (-). After being washed twice with PBS (-), the mucosa was minced into 2-3 mm^3 pieces by scissors. These pieces were further washed twice with a nutrient solution. The nutrient solution comprises 132.4 mM of NaCl, 5.4 mM of KCl, 5 mM of Na2 HPO4.12H2 O, 1 mM of NaH2 PO4.2H2 O, 1.2 mM of MgSO4, 1 mM of CaCl2, 25 mM of HEPES, 2 mg/ml of glucose, and 1 mg/ml of BSA. Into 70 ml of the nutrient solution containing 1 mg/ml of collagenase, minced mucosal pieces were dispersed and intensely stirred in a conical flask with a stirrer at 37° C. for 40 to 60 minutes. During this period, 100% O2 was sprayed on the nutrient solution surface and the pH was appropriately measured such that it was immediately adjusted to pH 7.4, when the value was therebelow, with a base. The nutrient solution was added to the reaction solution so as to attain the total amount of about 200 ml. After being filtered through a mesh, the suspension was divisionally introduced into 50 ml centrifuge tubes and left for 15 minutes such that gastric fundic gland was deposited. The supernatant was repeatedly removed by an aspirator, dispersed in the nutrient solution, and then left such that the gastric fundic gland was washed three times. At this time, without using a pipette, the suspension was alternately introduced into two centrifuge tubes so as to effect dispersion. The number of cells was counted under microscope and adjusted to 1.6×10^6 cells/ml.
ii-b) [^14 C]-aminopyrine uptake test
Then, [^14 C]-aminopyrine uptake test was performed. After an Eppendorf tube was weighed, 10 μl (final concentration: 10^-5 M) of histamine dissolved in the above-mentioned nutrient solution, 10 μl (final concentration: 10^-5 M) of the test compound dissolved in DMSO, and 10 μl (final concentration: 0.05 μCi/ml) of [^14 C]-aminopyrine diluted with the nutrient solution were introduced therein and then 970 μl of the isolated gastric fundic gland suspension prepared above was added thereto. Subsequently, this mixture was shaken at 37° C. for 40 minutes at 125 cycles/minute. After being centrifuged for 30 minutes, 200 μl of its supernatant was collected into a mini-vial, while the rest was removed by an aspirator. The gland pellet was completely dried as the tube with its lid being opened was kept for one night in a drying oven at 80° C. and then the lid was closed and the weight was determined at room temperature. Then 100 μl of 1N KOH was added thereto and the tube with its lid being closed was treated at 60° C. for 1 to 2 hours so as to dissolve the pellet. Then, the contents thereof were transferred to a mini-vial. Into the mini-vial containing the supernatant or gland pellet, 4 ml of Atomlite™ was added and then the radioactivity was measured by a liquid scintillation counter. […]

Data set [2] can be described thus: MTT: Cell Damaging and Protecting Effect Test. Particulars: rabbit, gastric mucosal cells.
Data set [3] relates to stress ulcer. Briefly: WIS: Restraint and Water Immersion Stress-Induced Ulcer Inhibition Test. It counts as in vivo, rat (male Crj:SD or Slc:SD). The following applies: 100 mg/kg oral, rats, water immersion stress 7 hours. In short, it runs like this:
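Fasted male SD rats (6–7 weeks, 5–8 per group) received compound orally at 100 mg/kg in 0.3% CMC-Na or 0.05% Tween 80; 10 min later, restraint with water immersion (21 °C) for 7 h. Summed glandular erosion length gave the ulcer index; inhibition (%) versus vehicle controls.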

The test system of data set [4] is gastric corpus mucosa cells. Particulars: rabbit, gastric mucosal cells, 4 h, 100 µM.
The subject of data set [5] is Helicobacter pyroli. Briefly: AHP: Antibacterial Activity Test Against Helicobacter pyroli (agar dilution MIC). The following applies: for MIC: Helicobacter, NCTC11637, 168 h, HP NCTC 11637, brucella agar with 5% horse blood, 7 days, read-out: AHP: minimum inhibitory concentration (MIC). The class given is cell-based, Helicobacter pyroli NCTC 11637. As to the method:
Antibacterial Activity Test Against Helicobacter pyroli i) Meaning The minimum inhibitory concentration (MIC) against Helicobacter pyroli (microaerophilic gram-negative bacterium which is supposed to deeply involve in pathogenesis, relapse, and recrudescence of ulcer, referred to as "HP" in the following) is measured so as to find out compounds which have antimicrobial activity against Helicobacter pyroli. ii) Method MICs were determined by the agar dilution method. The stock culture (-80° C.) of HP NCTC 11637 was thawed and cultured on tripticase soy agar supplemented with 5% sheep blood at 37° C. in an atmosphere of 5% O2, 10% CO2, and 85% N2. Grown colonies were transferred to the same plate and precultured for 3 days under the same condition. […] 10 μl of the bacterial suspension for inoculation (about 10^3 cfu) was inoculated on this plate and cultured for 7 days under the same condition as that of preculture.
In general terms: In agar dilution the substance is mixed into plates at graded concentrations.

In data set [6] the test system is Male Slc:ICR mice. More on the design: species or system mouse (male Slc:ICR). The following applies: mouse, in vivo. The method, then: AT: Single Dose Toxicity Pretest
Male Slc:ICR mice (5-week-old) were used. Each group has 3 to 5 mice and each mouse was fasted, but allowed free access to water, for 4 to 5 hours from 9 a.m. in the test day. Then, 2,000 mg/10 ml/kg of the sample compound dissolved or suspended in an aqueous solution of 0.5% sodium carboxymethyl cellulose was orally administered thereto. To a control, only the vehicle was administered. […] The body weight was measured before and after the fasting as well as at the same time everyday. The dead animals were immediately subjected to autopsy and their organs were observed microscopically. Also, the living animals were sacrificed with ether or carbon dioxide one week after the administration and then their organs were observed microscopically.
The toxicity at the single dose of 2,000 mg/kg of the sample compound was expressed as being classified into 5 levels.
5: Mortality rate is 0%; no toxicity is found at all both in behavior and organs.
4: Mortality rate is 0%; while no toxicity is found in organs, slight toxicity is observed in behavior and body weight increase.
3: While there is a dead animal (though not all the animals are dead), no toxicity is found in organs.
2: Regardless of whether there is a dead animal or not, toxicity is found in organs.
1: All the animals are dead.

A short description of data set [7]: in vitro. The following applies: rabbit, gastric mucosal cells.
The mark [8] stands for this setting: 10^-5 M compound, 10^-5 M histamine, rabbit isolated gastric fundic gland, 37° C., 40 minutes.

Four compounds from US5814634A, “Alkylenediamine derivative anti-ulcer drug and antibacterial drug” (Shiseido Co. Ltd., priority 1996, dated 1998) can be followed below.

Like-named read-outs stand apart in the source and are kept apart here.

As to `CC(C)=CCC/C(C)=C/COc1ccc(C(=O)NCCN2CCN(CC(=O)N3CCCC3)CC2)cc1` [Example 55], the inhibition at 10 µM in data set [1] is 99.2%. In data set [2], this compound came in with a cytotoxicity at 4 h, 100 µM of 27%.
As to `CC(C)=CCCC(C)=CCOc1ccc(C(=O)NCCN2CC(C)OC(C)C2)cc1` (stereo not shown) [Example 34], the “WIS: ulcer formation inhibitory rate” value in data set [3] is given as 38%. In addition, the “MTT: cell damaging rate” value in data set [4] stood at 14%.
For the compound `CC(C)Cc1cc(C(=O)NCCN2CCN(CC(C)C)CC2)ccc1OCc1ccc(F)cc1` [Example 62], the “WIS: ulcer formation inhibitory rate” value in data set [3] is reported as 77%. Moreover, in data set [5], the MIC was < 3.13 µg/mL. Moreover, the inhibition at 10 µM in data set [1] (setting [8]) was determined as 102%. Also, the “AT: toxicity at single dose, 5 levels” value in data set [6] came to 3.
`CC(C)=CCC/C(C)=C/COc1ccc(C(=O)NCCN2CCN(c3nc4ccccc4s3)CC2)cc1` [Example 59]: in data set [3], the “WIS: ulcer formation inhibitory rate” value was 47%. Further, the cytotoxicity at 4 h, 100 µM in data set [7] stood at 7%. The MIC in data set [5] is < 3.13 µg/mL. In addition, the “antibacterial activity against Helicobacter pyroli” value in data set [5] (result in words) was “having an antibacterial activity against Helicobacter pyroli”. Also, in data set [1] (setting [8]), the inhibition at 10 µM amounted to 93%.
